Reference: patent US20260159536A1, “AKR1C3-ACTIVATED DNA ALKYLATING AGENT, AND MEDICAL APPLICATION THEREOF” (ASCENTAWITS PHARMACEUTICALS, LTD., priority 2021, published 2026)

Experiments:
Parameters in all cases: species or system BALB/c nude mice
[1] = tested on: human liver cancer LI6652; experiment: In vivo pharmacodynamics, liver cancer LI6652 subcutaneous xenograft PDX model; settings: 30 mg/kg p.o. QDx21; Day 28
[2] = tested on: HuPrime model LI6643 human liver cancer; experiment: In vivo pharmacodynamics, liver cancer LI6643 PDX model (Compound A, Sorafenib, AST-3424; section 4.7); settings: for Tumor volume: 30 mg/kg p.o.
Method: Experiment Instruction: BALB/c nude mice were subcutaneously inoculated with HuPrime® model LI6643 tumor blocks to establish a subcutaneous grafted tumor model of human liver cancer. […] The efficacy was evaluated according to the relative tumor inhibition rate TGI (%), and the safety was evaluated according to the change in body weight and the death of the animals.

[3] = tested on: human liver cancer LI6652; experiment: In vivo pharmacodynamics, liver cancer LI6652 subcutaneous xenograft PDX model; settings: for Tumor volume: 30 mg/kg p.o.
Method: The pharmacodynamic analysis of each group in liver cancer LI6652 model was performed on Day 31 after administration, and the results were shown in Table 12.

[4] = tested on: HuPrime model LI1005 human liver cancer; experiment: In vivo pharmacodynamics, liver cancer LI1005 PDX model; settings: for Tumor volume: 30 mg/kg p.o.
[5] = tested on: human liver cancer HepG2 cells; experiment: In vivo pharmacodynamics, liver cancer HepG2 CDX model
Method: Experiment Instruction: BALB/c nude mice were subcutaneously inoculated with human liver cancer HepG2 cells to establish a subcutaneous transplantation tumor model of human liver cancer. […] The efficacy was evaluated according to the relative tumor inhibition rate TGI (%), and the safety was evaluated according to the change in body weight and the death of the animals.

[6] = tested on: HuPrime model LI6280 human liver cancer; experiment: In vivo pharmacodynamics, liver cancer LI6280 PDX model; settings: for Tumor volume: 30 mg/kg p.o.
Method: Experiment Instruction: BALB/c nude mice were subcutaneously inoculated with HuPrime® model LI6280 tumour blocks to establish a subcutaneous transplantation tumour model of human liver cancer. […] The efficacy was evaluated according to the relative tumor inhibition rate TGI (%), and the safety was evaluated according to the change in body weight and the death of the animals.

[7] = tested on: HuPrime model LI6664 human liver cancer; experiment: In vivo pharmacodynamics, liver cancer LI6664 PDX model; settings: for Size of tumor volume: Group2, Sorafenib 30 mg/kg
Method: Experiment Instruction: BALB/c nude mice were subcutaneously inoculated with HuPrime® model LI6664 tumor blocks to establish a subcutaneous transplantation tumor model of human liver cancer. […] Among them, 7.5% anhydrous ethanol+7.5% polyoxyethylene (35) castor oil+85% glucose injection D5W (pH 7.4) vehicle control group was administered by tail vein once a week for 3 consecutive weeks; test drug AST-3424 0.3 mg/kg and 1 mg/kg groups were administered by tail vein injection once a day for 5 consecutive days, followed by 2 days off, followed by 2 weeks off, and then continuously administered for 5 consecutive days; the test drug AST-3424 1.25 mg/kg group was administered by tail vein injection once a week for 2 consecutive weeks, followed by one week off, and then continuously administered for 2 consecutive weeks, Compound A 0.5 mg/kg, 1.5 mg/kg, and 4.5 mg/kg groups were administered by tail vein injection once a week for three consecutive weeks, followed by 1 week off, and then administered for three consecutive weeks. […] The efficacy was evaluated according to the relative tumor inhibition rate TGI (%), and the safety was evaluated according to the change in body weight and the death of the animals.

[8] = tested on: HuPrime model LI6643 human liver cancer; experiment: In vivo pharmacodynamics, liver cancer LI6643 PDX model (Compound A, Sorafenib; section 4.8); settings: for Tumor volume: 20-30 mg/kg p.o.
Method: Experiment Instruction: BALB/c nude mice were subcutaneously inoculated with HuPrime® model LI6643 tumor blocks to establish a subcutaneous transplantation tumor model of human liver cancer. […] The efficacy was evaluated according to the relative tumor inhibition rate TGI (%), and the safety was evaluated according to the change in body weight and the death of the animals.

[9] = 30 mg/kg, QDx21 Days, p.o., Day 53
[10] = 20-30 mg/kg p.o. QD (30 mg/kg day0-day11, 20 mg/kg day 12-day20), Day 35

For `CNC(=O)c1cc(Oc2ccc(NC(=O)Nc3ccc(Cl)c(C(F)(F)F)c3)cc2)ccn1` [Sorafenib, reference compound], which “Tumor volume (x ± S)” value [1] is on record?
Its value is 315.93 ± 81.35.

What about the “T/C (%)” value ([2]; 30 mg/kg p.o. QDx21, Day 21) of the same molecule?
The value was 37.88%.

And the “TGI (%)” value ([2]; 30 mg/kg p.o. QDx21, Day 21)?
The value was 62.12%.

What about the “Tumor volume (x ± S)” value ([2]; 30 mg/kg p.o. QDx21, Day 21, in mm³) of the same molecule?
Its value is 214.75 ± 31.53.

What about the Tumor volume ([2]; Day 0) of the same molecule?
The Tumor volume was 124.67 mm^3.

What about the Tumor volume ([2]; Day 3) of the same molecule?
The Tumor volume was 170.03 mm^3.

And the Tumor volume ([2]; Day 7)?
The Tumor volume was 185.13 mm^3.

What about the Tumor volume ([2]; Day 10) of the same molecule?
Its Tumor volume is 193.95 mm^3.

And the Tumor volume ([2]; Day 14)?
The Tumor volume was 189.87 mm^3.

What about the Tumor volume ([2]; Day 17) of the same molecule?
The Tumor volume was 171.25 mm^3.

What about the Tumor volume ([2]; Day 21) of the same molecule?
The Tumor volume was 214.75 mm^3.

What about the Tumor volume ([2]; Day 24) of the same molecule?
The Tumor volume was 238.48 mm^3.

What about the Tumor volume ([2]; Day 28) of the same molecule?
The Tumor volume was 309.08 mm^3.

And the “T/C (%)” value ([3]; 30 mg/kg p.o. QDx21, Day 28)?
Its value is 17.04%.

What about the “TGI (%)” value ([3]; 30 mg/kg p.o. QDx21, Day 28) of the same molecule?
Its value is 82.96%.

What about the Tumor volume ([3]; Day 0) of the same molecule?
The Tumor volume was 125.84 mm^3.

And the Tumor volume ([3]; Day 3)?
Its Tumor volume is 146.95 mm^3.

What about the Tumor volume ([3]; Day 7) of the same molecule?
The Tumor volume was 196.51 mm^3.

And the Tumor volume ([3]; Day 10)?
The Tumor volume was 212.41 mm^3.

What about the Tumor volume ([3]; Day 14) of the same molecule?
The Tumor volume was 217.19 mm^3.

What about the Tumor volume ([3]; Day 17) of the same molecule?
The Tumor volume was 191.72 mm^3.

And the Tumor volume ([3]; Day 21)?
The Tumor volume was 178.69 mm^3.

What about the Tumor volume ([3]; Day 24) of the same molecule?
Its Tumor volume is 209.42 mm^3.

What about the Tumor volume ([3]; Day 28) of the same molecule?
The Tumor volume was 315.93 mm^3.

What about the Tumor volume ([3]; Day 31) of the same molecule?
Its Tumor volume is 441.67 mm^3.

And the “T/C (%)” value ([4]; 30 mg/kg p.o. QDx21, Day 35)?
Its value is 28.26%.

And the “TGI (%)” value ([4]; 30 mg/kg p.o. QDx21, Day 35)?
The value was 71.74%.

And the “Tumor volume (x ± S)” value ([4]; 30 mg/kg p.o. QDx21, Day 35, in mm³ (unit assumed))?
Its value is 294.09 ± 60.93.

What about the Tumor volume ([4]; Day 0) of the same molecule?
Its Tumor volume is 102.89 mm^3.

And the Tumor volume ([4]; Day 3)?
Its Tumor volume is 121.64 mm^3.

What about the Tumor volume ([4]; Day 7) of the same molecule?
Its Tumor volume is 136.21 mm^3.

What about the Tumor volume ([4]; Day 10) of the same molecule?
Its Tumor volume is 136.21 mm^3.

What about the Tumor volume ([4]; Day 14) of the same molecule?
The Tumor volume was 136.89 mm^3.

What about the Tumor volume ([4]; Day 17) of the same molecule?
The Tumor volume was 140.09 mm^3.

What about the Tumor volume ([4]; Day 21) of the same molecule?
Its Tumor volume is 142.56 mm^3.

And the Tumor volume ([4]; Day 24)?
The Tumor volume was 161.17 mm^3.

What about the Tumor volume ([4]; Day 28) of the same molecule?
Its Tumor volume is 200.97 mm^3.

What about the Tumor volume ([4]; Day 31) of the same molecule?
Its Tumor volume is 227.65 mm^3.

What about the Tumor volume ([4]; Day 35) of the same molecule?
The Tumor volume was 294.09 mm^3.

What about the weight loss ([5]; 30 mg/kg p.o.) of the same molecule?
Its weight loss is “caused significant weight loss”.

And the Tumor volume ([5]; 30 mg/kg p.o., Day 19)?
Its Tumor volume is 189.76 mm^3.

And the Tumor volume ([5]; 30 mg/kg p.o., Day 22)?
The Tumor volume was 291.62 mm^3.

What about the Tumor volume ([5]; 30 mg/kg p.o., Day 24) of the same molecule?
The Tumor volume was 311.64 mm^3.

And the Tumor volume ([5]; 30 mg/kg p.o., Day 27)?
Its Tumor volume is 340.46 mm^3.

And the Tumor volume ([5]; 30 mg/kg p.o., Day 31)?
The Tumor volume was 398.84 mm^3.

And the Tumor volume ([5]; 30 mg/kg p.o., Day 36)?
The Tumor volume was 491.06 mm^3.

What about the Tumor volume ([5]; 30 mg/kg p.o., Day 39) of the same molecule?
Its Tumor volume is 509.41 mm^3.

And the Tumor volume ([5]; 30 mg/kg p.o., Day 42)?
The Tumor volume was 657.51 mm^3.

What about the Tumor volume ([5]; 30 mg/kg p.o., Day 46) of the same molecule?
The Tumor volume was 816.63 mm^3.

And the Tumor volume ([5]; 30 mg/kg p.o., Day 49)?
The Tumor volume was 1012.20 mm^3.

What about the Tumor volume ([5]; 30 mg/kg p.o., Day 53) of the same molecule?
The Tumor volume was 1484.78 mm^3.

And the “T/C (%)” value [5, 9]?
The value was 65.95%.

And the “TGI (%)” value [5, 9]?
The value was 34.05%.

And the “Tumor volume (x ± S)” value ([5]; 30 mg/kg, QDx21 Days, p.o., Day 53, in mm³ (unit assumed))?
Its value is 1484.78 ± 304.89.

And the “T/C (%)” value ([6]; 30 mg/kg p.o. QDx21, Day 17)?
The value was 49.65%.

And the “TGI (%)” value ([6]; 30 mg/kg p.o. QDx21, Day 17)?
The value was 50.35%.

And the “Tumor volume (x ± S)” value ([6]; 30 mg/kg p.o. QDx21, Day 17, in mm³ (unit assumed))?
The value was 1076.45 ± 230.21.

What about the Tumor volume ([6]; Day 0) of the same molecule?
The Tumor volume was 103.93 mm^3.

And the Tumor volume ([6]; Day 3)?
The Tumor volume was 168.82 mm^3.

What about the Tumor volume ([6]; Day 7) of the same molecule?
Its Tumor volume is 269.83 mm^3.

And the Tumor volume ([6]; Day 10)?
Its Tumor volume is 439.29 mm^3.

What about the Tumor volume ([6]; Day 14) of the same molecule?
The Tumor volume was 731.99 mm^3.

What about the Tumor volume ([6]; Day 17) of the same molecule?
Its Tumor volume is 1076.45 mm^3.

What about the Tumor volume ([6]; Day 21) of the same molecule?
The Tumor volume was 1241.19 mm^3.

What about the Tumor volume ([6]; Day 24) of the same molecule?
The Tumor volume was 1504.89 mm^3.

And the Tumor volume ([6]; Day 28)?
The Tumor volume was 2218.52 mm^3.

And the Tumor volume ([6]; Day 31)?
The Tumor volume was 2313.01 mm^3.

And the “Size of tumor volume” value ([7]; Day 0)?
Its value is 107.93 mm^3.

And the “Size of tumor volume” value ([7]; Day 4)?
The value was 170.15 mm^3.

And the “Size of tumor volume” value ([7]; Day 7)?
Its value is 197.93 mm^3.

And the “Size of tumor volume” value ([7]; Day 11)?
The value was 218.34 mm^3.

And the “Size of tumor volume” value ([7]; Day 14)?
The value was 321.83 mm^3.

What about the “Size of tumor volume” value ([7]; Day 18) of the same molecule?
Its value is 391.52 mm^3.

What about the “Size of tumor volume” value ([7]; Day 21) of the same molecule?
Its value is 481.85 mm^3.

What about the “Size of tumor volume” value ([7]; Day 25) of the same molecule?
Its value is 730.68 mm^3.

What about the “Size of tumor volume” value ([7]; Day 28) of the same molecule?
The value was 1003.42 mm^3.

What about the “Size of tumor volume” value ([7]; Day 32) of the same molecule?
Its value is 1333.07 mm^3.

And the “Size of tumor volume” value ([7]; Day 35)?
The value was 1595.00 mm^3.

And the “Size of tumor volume” value ([7]; Day 39)?
The value was 2102.94 mm^3.

And the “Size of tumor volume” value ([7]; Day 42)?
Its value is 2729.04 mm^3.

What about the “Size of tumor volume” value ([7]; Day 46) of the same molecule?
Its value is 2892.15 mm^3.

What about the “Size of tumor volume” value ([7]; Day 49) of the same molecule?
Its value is 2600.00 mm^3.

And the “T/C (%)” value ([7]; Sorafenib 30 mg/kg, Day 28)?
Its value is 71.01%.

What about the “TGI (%)” value ([7]; Sorafenib 30 mg/kg, Day 28) of the same molecule?
Its value is 28.99%.

What about the “Tumor volume (x ± S)” value ([7]; Sorafenib 30 mg/kg, Day 28, mean ± standard error, in mm³ (unit assumed)) of the same molecule?
Its value is 1003.42 ± 128.88.

And the weight loss ([7]; treatment period, tested doses)?
Its weight loss is “weight loss in individual mice”.

And the “T/C (%)” value [8, 10]?
Its value is 21.81%.

And the “Tumor volume (x ± S)” value [8, 10]?
The value was 392.20 ± 64.05.

And the Tumor volume ([8]; Day 0)?
The Tumor volume was 126.16 mm^3.

What about the Tumor volume ([8]; Day 4) of the same molecule?
The Tumor volume was 163.51 mm^3.

What about the Tumor volume ([8]; Day 7) of the same molecule?
Its Tumor volume is 205.85 mm^3.

What about the Tumor volume ([8]; Day 11) of the same molecule?
Its Tumor volume is 235.50 mm^3.

What about the Tumor volume ([8]; Day 14) of the same molecule?
Its Tumor volume is 279.42 mm^3.

What about the Tumor volume ([8]; Day 18) of the same molecule?
Its Tumor volume is 291.41 mm^3.

What about the Tumor volume ([8]; Day 21) of the same molecule?
The Tumor volume was 287.76 mm^3.

And the Tumor volume ([8]; Day 25)?
The Tumor volume was 326.85 mm^3.

And the Tumor volume ([8]; Day 28)?
Its Tumor volume is 346.56 mm^3.

What about the Tumor volume ([8]; Day 32) of the same molecule?
The Tumor volume was 385.09 mm^3.

And the Tumor volume ([8]; Day 35)?
The Tumor volume was 392.20 mm^3.

And the Tumor volume ([8]; Day 39)?
The Tumor volume was 431.87 mm^3.

What about the Tumor volume ([8]; Day 42) of the same molecule?
The Tumor volume was 451.48 mm^3.

What about the Tumor volume ([8]; Day 46) of the same molecule?
Its Tumor volume is 521.44 mm^3.

And the Tumor volume ([8]; Day 49)?
The Tumor volume was 585.72 mm^3.

What about the Tumor volume ([8]; Day 53) of the same molecule?
Its Tumor volume is 622.46 mm^3.
